Source: ChEMBL document CHEMBL1221281, “Discovery of 2-(4-((1H-1,2,4-triazol-1-yl)methyl)-5-(4-bromophenyl)-1-(2-chlorophenyl)-1H-pyrazol-3-yl)-5-tert-butyl-1,3,4-thiadiazole (GCC2680) as a potent, selective and orally efficacious cannabinoid-1 receptor antagonist” (Bioorg Med Chem, 2010)
Calls of active or inactive are those of the source. The rule behind the calls is not given here.

What was measured:
[1] = molecular target: Cytochrome P450 2C9 (Homo sapiens, UniProt P11712); assay: Inhibition of CYP2C9 in human liver microsomes after 30 mins; assay type: ADME, Microsome
Cytochrome P450 2C9, sequence (P11712 whole entry): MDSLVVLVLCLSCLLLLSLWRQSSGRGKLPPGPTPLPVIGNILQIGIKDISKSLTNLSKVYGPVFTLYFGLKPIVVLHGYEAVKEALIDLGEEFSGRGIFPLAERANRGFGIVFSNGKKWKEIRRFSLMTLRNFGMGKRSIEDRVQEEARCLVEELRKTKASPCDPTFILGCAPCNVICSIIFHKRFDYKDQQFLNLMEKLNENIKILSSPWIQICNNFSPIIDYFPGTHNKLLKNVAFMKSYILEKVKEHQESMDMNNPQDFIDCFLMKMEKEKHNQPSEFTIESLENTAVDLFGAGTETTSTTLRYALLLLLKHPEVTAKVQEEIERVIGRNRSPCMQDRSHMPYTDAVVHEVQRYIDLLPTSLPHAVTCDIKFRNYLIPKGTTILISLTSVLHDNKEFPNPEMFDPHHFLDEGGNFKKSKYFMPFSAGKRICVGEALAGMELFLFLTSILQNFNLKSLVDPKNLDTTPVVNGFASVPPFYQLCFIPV

[2] = Cmax in Sprague-Dawley rat at 5 mg/kg, po; assay type: ADME, organism-based; design: dose 5 mg/kg, route oral; details: in vivo
[3] = test system: Mus musculus; assay: Antiobesity activity in po dosed diet-induced obesity C57BL/6 mouse model assessed as reduction of body weight administered qd for 13 days; assay type: functional, organism-based
[4] = Selectivity ratio of IC50 for human CB2 receptor to IC50 for CB1 receptor in Sprague-Dawley rat cerebellum; assay type: tissue-based
[5] = molecular target: Cannabinoid receptor 1 (Rattus norvegicus, UniProt P20272)
Cannabinoid receptor 1, sequence (P20272 whole entry): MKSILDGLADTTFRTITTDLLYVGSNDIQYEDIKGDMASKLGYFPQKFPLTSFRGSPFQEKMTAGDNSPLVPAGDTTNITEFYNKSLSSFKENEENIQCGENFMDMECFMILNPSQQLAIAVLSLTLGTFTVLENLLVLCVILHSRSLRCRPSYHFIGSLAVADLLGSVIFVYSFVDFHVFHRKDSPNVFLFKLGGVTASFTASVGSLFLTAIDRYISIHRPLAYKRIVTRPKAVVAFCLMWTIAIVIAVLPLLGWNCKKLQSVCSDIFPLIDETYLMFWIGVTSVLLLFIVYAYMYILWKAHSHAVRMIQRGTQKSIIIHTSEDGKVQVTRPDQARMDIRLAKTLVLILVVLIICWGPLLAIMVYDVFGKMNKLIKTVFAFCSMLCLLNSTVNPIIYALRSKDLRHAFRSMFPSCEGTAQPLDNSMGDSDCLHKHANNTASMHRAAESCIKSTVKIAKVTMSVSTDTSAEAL
Description: Displacement of [3H]CP-55940 from CB1 receptor in Sprague-Dawley rat cerebellum after 1 hr by liquid scintillation counting

[6] = Clearance in Sprague-Dawley rat at 1 mg/kg, iv; assay type: ADME, organism-based; design: dose 1 mg/kg, route intravenous; details: in vivo
[7] = Mutagenic activity in Salmonella Typhimurium TA100 assessed as number of spontaneous and drug-induced revertants after 48 hrs by Ames test; assay type: toxicity; details: salmonella enterica subsp. enterica serovar typhimurium
[8] = test system: HCT-116; assay: Cytotoxicity against human HCT116 cells; assay type: cell-based
[9] = test system: Rattus norvegicus; assay: Clast in Sprague-Dawley rat at 1 mg/kg, iv; assay type: ADME, organism-based; design: dose 1 mg/kg, route intravenous; details: in vivo
[10] = molecular target: Voltage-gated inwardly rectifying potassium channel KCNH2 (Homo sapiens, UniProt Q12809); assay: Inhibition of human ERG at holding potential of -80 mV to +40 mV
Voltage-gated inwardly rectifying potassium channel KCNH2, sequence (Q12809 whole entry): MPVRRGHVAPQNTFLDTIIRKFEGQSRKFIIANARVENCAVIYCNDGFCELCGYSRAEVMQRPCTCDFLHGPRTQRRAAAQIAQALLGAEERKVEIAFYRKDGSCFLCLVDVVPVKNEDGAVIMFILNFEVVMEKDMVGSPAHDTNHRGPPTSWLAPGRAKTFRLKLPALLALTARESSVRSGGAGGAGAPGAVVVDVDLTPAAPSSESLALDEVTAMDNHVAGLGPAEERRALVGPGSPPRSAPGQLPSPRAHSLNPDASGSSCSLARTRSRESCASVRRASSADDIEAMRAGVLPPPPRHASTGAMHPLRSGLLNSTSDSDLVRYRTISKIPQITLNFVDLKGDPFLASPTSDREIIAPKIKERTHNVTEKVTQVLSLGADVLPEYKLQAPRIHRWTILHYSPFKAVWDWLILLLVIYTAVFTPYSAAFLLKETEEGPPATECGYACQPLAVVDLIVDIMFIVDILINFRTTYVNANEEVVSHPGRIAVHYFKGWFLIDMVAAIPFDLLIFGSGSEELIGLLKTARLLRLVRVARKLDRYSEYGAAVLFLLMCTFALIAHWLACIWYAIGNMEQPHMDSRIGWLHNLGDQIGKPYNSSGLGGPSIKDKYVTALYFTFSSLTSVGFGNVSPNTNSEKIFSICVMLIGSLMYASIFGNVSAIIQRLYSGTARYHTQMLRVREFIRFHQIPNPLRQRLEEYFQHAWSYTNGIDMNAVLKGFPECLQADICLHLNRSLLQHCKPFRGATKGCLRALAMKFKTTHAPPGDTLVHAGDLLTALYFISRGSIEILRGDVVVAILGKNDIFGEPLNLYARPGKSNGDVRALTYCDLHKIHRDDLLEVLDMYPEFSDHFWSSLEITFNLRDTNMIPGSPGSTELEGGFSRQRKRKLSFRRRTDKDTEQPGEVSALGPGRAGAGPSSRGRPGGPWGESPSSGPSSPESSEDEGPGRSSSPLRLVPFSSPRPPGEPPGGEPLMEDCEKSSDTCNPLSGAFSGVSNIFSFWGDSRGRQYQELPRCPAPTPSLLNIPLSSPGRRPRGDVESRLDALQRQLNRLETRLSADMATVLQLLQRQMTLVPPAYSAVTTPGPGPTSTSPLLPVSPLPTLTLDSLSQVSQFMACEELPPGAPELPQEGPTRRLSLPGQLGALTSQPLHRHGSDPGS

[11] = Cmax in Sprague-Dawley rat at 1 mg/kg, iv; assay type: ADME, organism-based; design: dose 1 mg/kg, route intravenous; details: in vivo
[12] = test system: Nucleic Acid; assay: Induction of DNA damage up to 50 uM after 2 hrs by comet assay; assay type: nucleic-acid assay
[13] = Cytotoxicity against human HuH7 cells; assay type: cell-based; details: Huh-7
[14] = test system: Rattus norvegicus; assay: AUC (0 to infinity) in Sprague-Dawley rat at 5 mg/kg, po; assay type: ADME, organism-based, Plasma; design: time infinity, dose 5 mg/kg, route oral; details: in vivo
[15] = molecular target: Cannabinoid receptor 2 (Homo sapiens, UniProt P34972); assay: Displacement of [3H]WIN-55212-2 from human CB2 receptor expressed in CHO-K1 cells after 1 hr by liquid scintillation counting; assay type: cell-based
Cannabinoid receptor 2, sequence (P34972 whole entry): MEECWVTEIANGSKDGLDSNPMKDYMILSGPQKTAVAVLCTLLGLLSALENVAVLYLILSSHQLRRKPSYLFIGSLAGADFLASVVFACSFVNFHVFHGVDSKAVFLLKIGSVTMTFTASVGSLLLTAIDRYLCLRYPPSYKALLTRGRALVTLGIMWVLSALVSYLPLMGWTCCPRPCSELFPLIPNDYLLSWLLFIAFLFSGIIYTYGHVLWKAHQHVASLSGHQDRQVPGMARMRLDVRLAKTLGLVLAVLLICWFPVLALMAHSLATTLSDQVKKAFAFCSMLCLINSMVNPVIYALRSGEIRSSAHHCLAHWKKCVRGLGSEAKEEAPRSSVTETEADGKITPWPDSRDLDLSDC

[16] = test system: Mus musculus; assay: Antidiabetic activity in db/db mouse at 10 mg/kg, po qd for 14 days; assay type: functional, organism-based; design: dose 10 mg/kg
[17] = test system: Rattus norvegicus; assay: Clast in Sprague-Dawley rat at 5 mg/kg, po; assay type: ADME, organism-based; design: dose 5 mg/kg, route oral; details: in vivo
[18] = test system: Rattus norvegicus; assay: Acute toxicity in rat assessed as mortality at 2000 mg/kg, po; assay type: organism-based; design: dose 2000 mg/kg, route oral; details: in vivo
[19] = test system: Mus musculus; assay: Antidiabetic activity in diet-induced obesity mouse model at 10 mg/kg, po qd for 14 days; assay type: functional, organism-based; design: dose 10 mg/kg
[20] = molecular target: Cytochrome P450 3A4 (Homo sapiens, UniProt P08684); assay: Inhibition of CYP3A4 in human liver microsomes after 30 mins; assay type: ADME, Microsome
Cytochrome P450 3A4, sequence (P08684 whole entry): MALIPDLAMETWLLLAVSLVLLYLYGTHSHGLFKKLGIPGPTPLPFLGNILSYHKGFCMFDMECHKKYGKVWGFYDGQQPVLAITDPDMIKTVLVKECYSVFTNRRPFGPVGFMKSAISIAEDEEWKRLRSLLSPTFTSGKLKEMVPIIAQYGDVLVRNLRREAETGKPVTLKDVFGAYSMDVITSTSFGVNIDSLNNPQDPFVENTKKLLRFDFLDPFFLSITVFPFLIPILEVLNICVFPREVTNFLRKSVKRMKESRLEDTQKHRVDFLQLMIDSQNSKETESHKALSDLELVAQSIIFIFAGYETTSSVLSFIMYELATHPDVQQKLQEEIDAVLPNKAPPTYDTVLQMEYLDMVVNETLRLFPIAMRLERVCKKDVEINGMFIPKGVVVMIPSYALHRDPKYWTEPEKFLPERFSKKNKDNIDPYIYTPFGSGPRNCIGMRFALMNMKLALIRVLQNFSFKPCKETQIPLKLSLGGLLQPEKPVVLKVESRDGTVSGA

[21] = test system: Mus musculus; assay: Antiobesity activity in po dosed diet-induced obesity C57BL/6 mouse model assessed as reduction mean white adipocytes diameter qd for 14 days; assay type: functional, organism-based
[22] = test system: Rattus norvegicus; assay: Acute toxicity in rat assessed as mortality at 125 mg/kg, po qd for 7 days; assay type: organism-based; design: dose 125 mg/kg, route oral; details: in vivo, 168 h
[23] = molecular target: T1, Cytochrome P450 1A2 (Homo sapiens, UniProt P05177); assay: Inhibition of CYP1A2 in human liver microsomes after 30 mins; assay type: ADME, Microsome
T1 sequence (P05177 whole entry): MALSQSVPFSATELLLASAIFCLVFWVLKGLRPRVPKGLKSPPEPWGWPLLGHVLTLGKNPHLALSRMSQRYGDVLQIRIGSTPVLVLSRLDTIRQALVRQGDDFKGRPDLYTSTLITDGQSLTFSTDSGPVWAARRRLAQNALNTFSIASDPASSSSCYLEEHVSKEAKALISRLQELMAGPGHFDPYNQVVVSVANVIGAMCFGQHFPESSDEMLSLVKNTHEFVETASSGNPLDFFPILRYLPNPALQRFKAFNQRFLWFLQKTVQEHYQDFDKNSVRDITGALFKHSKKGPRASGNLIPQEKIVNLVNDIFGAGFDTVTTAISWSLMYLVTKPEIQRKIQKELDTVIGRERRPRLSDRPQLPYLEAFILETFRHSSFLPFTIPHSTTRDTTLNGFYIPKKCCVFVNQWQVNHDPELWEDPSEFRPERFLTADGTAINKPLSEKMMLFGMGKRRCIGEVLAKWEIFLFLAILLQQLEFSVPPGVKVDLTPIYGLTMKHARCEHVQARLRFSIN

[24] = test system: Mus musculus; assay: Antiobesity activity in diet-induced obesity C57BL/6 mouse model assessed as reduction of body weight at 10 mg/kg, po qd for 14 days; assay type: functional; design: scale not given: the % may be the effect or the level left
[25] = Half life in Sprague-Dawley rat at 5 mg/kg, po; assay type: ADME, organism-based; design: dose 5 mg/kg, route oral; details: in vivo
[26] = molecular target: Cytochrome P450 2D6 (Homo sapiens, UniProt P10635); assay: Inhibition of CYP2D6 in human liver microsomes after 30 mins; assay type: ADME, Microsome
Cytochrome P450 2D6, sequence (P10635 whole entry): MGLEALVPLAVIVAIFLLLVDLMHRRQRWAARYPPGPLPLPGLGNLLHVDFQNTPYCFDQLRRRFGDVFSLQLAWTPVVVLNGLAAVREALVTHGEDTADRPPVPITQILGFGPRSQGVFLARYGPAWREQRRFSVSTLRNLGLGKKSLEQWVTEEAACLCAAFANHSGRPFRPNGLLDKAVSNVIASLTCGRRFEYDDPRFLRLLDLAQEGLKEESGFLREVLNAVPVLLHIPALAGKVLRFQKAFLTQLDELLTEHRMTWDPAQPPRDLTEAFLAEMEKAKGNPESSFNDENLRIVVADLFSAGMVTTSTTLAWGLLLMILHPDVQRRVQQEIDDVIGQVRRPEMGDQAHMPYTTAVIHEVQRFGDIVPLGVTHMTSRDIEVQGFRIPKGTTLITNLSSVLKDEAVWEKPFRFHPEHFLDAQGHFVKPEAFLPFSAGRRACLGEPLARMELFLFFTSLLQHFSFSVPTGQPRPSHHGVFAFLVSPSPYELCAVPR

[27] = Half life in Sprague-Dawley rat at 1 mg/kg, iv; assay type: ADME, organism-based; design: dose 1 mg/kg, route intravenous; details: in vivo
[28] = test system: Vero; assay: Cytotoxicity against african green monkey Vero cells; assay type: cell-based; details: Chlorocebus sabaeus
[29] = test system: Rattus norvegicus; assay: AUC (0 to infinity) in Sprague-Dawley rat at 1 mg/kg, iv; assay type: ADME, organism-based, Plasma; design: time infinity, dose 1 mg/kg, route intravenous; details: in vivo
[30] = test system: HEK293; assay: Cytotoxicity against human HEK293 cells; assay type: cell-based
[31] = Ratio of drug level in brain to plasma in Sprague-Dawley rat; assay type: ADME
[32] = test system: Rattus norvegicus; assay: Acute toxicity in po dosed rat; assay type: organism-based; details: in vivo
[33] = Tmax in Sprague-Dawley rat at 5 mg/kg, po; assay type: ADME, organism-based; design: dose 5 mg/kg, route oral; details: in vivo
[34] = Acute toxicity in po dosed rat assessed as mortality; assay type: organism-based; details: in vivo
[35] = test system: Mus musculus; assay: Antiobesity activity in diet-induced obesity C57BL/6 mouse model assessed as reduction of body weight at 10 mg/kg, po qd for 13 days; assay type: functional; design: scale not given: the % may be the effect or the level left
[36] = test system: Rattus norvegicus; assay: Acute toxicity in rat assessed as mortality at 250 mg/kg, po qd for 7 days; assay type: organism-based; design: dose 250 mg/kg, route oral; details: in vivo, 168 h
[37] = test system: Rattus norvegicus; assay: Acute toxicity in rat assessed as mortality at 1000 mg/kg, po qd for 7 days; assay type: organism-based; design: dose 1000 mg/kg, route oral; details: in vivo, 168 h
[38] = test system: Mus musculus; assay: Antiobesity activity in diet-induced obesity C57BL/6 mouse model assessed as reduction of body weight at 20 mg/kg, po qd for 13 days; assay type: functional; design: scale not given: the % may be the effect or the level left
[39] = test system: Rattus norvegicus; assay: Antiobesity activity in diet-induced obesity Sprague-Dawley rat model assessed as reduction of body weight administered at 10 mg/kg, po qd for 13 days; assay type: functional; design: scale not given: the % may be the effect or the level left
[40] = Oral bioavailability in Sprague-Dawley rat at 5 mg/kg, po; assay type: ADME, organism-based; details: in vivo
[41] = test system: Mus musculus; assay: Antiobesity activity in diet-induced obesity C57BL/6 mouse model assessed as reduction of body weight at 3 mg/kg, po qd for 13 days; assay type: functional
[42] = test system: Rattus norvegicus; assay: Acute toxicity in rat assessed as mortality at 1500 mg/kg, po; assay type: organism-based; design: dose 1500 mg/kg, route oral; details: in vivo
[43] = test system: Mus musculus; assay: Antidiabetic activity in ob/ob mouse at 10 mg/kg, po qd for 14 days; assay type: functional, organism-based; design: dose 10 mg/kg
[44] = test system: Rattus norvegicus; assay: Acute toxicity in rat assessed as mortality at 500 mg/kg, po qd for 7 days; assay type: organism-based; design: dose 500 mg/kg, route oral; details: in vivo, 168 h

## CC(C)(C)c1nnc(-c2nn(-c3ccccc3Cl)c(-c3ccc(Br)cc3)c2Cn2cncn2)s1
[1]
  IC50: > 20 µM
[2]
  Cmax: 1530 ng/mL
[3]
  Activity: Dose-dependent effect
[4]
  Ratio IC50: 807
[5]
  IC50: 0.000681 µM
[6]
  clearance: 10.7 mL/min/kg
[7]
  Activity: Non-toxic
[8]
  EC50: > 100 µM
[9]
  Clast: 50 ng/mL
[10]
  IC50: 10.5 µM
[11]
  Cmax: 2500 ng/mL
[12]
  Activity: Non-toxic
[13]
  EC50: > 100 µM
[14]
  AUC: 369.72 min/µg/mL
[15]
  IC50: 0.549 µM
[16]
  Activity: Active
[17]
  Clast: 30 ng/mL
[18]
  Activity: Non-toxic
[19]
  Activity: Active
[20]
  IC50: > 20 µM
[21]
  Activity: Dose-dependent effect
[22]
  Activity: Non-toxic
[23]
  IC50: > 20 µM
[24]
  Activity: 32.55%
[25]
  half-life: 7.11 h
[26]
  IC50: > 20 µM
[27]
  half-life: 5.3 h
[28]
  EC50: > 100 µM
[29]
  AUC: 119.9 min/µg/mL
[30]
  EC50: > 100 µM
[31]
  BPR: 58%
[32]
  Activity: 125 mg/kg
[33]
  Tmax: 1 h
[34]
  LD50: > 2000 mg/kg
[35]
  Activity: 34.9%
[36]
  Activity: Non-toxic
[37]
  Activity: Non-toxic
[38]
  Activity: 38.06%
[39]
  Activity: 15.59%
[40]
  bioavailability: 61.7%
[41]
  Activity: Active
[42]
  Activity: Non-toxic
[43]
  Activity: Active
[44]
  Activity: Non-toxic
